Test results: PubChem BioAssay (NCI)
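At the GI50, growth is halved. TGI marks complete inhibition of growth.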

How the values were obtained:
Test in all cases: NCI anticancer screen, dose series, 384-well format
COLO 205 colon = system: COLO 205 colon
T-47D breast = system: T-47D breast
SK-MEL-5 melanoma = system: SK-MEL-5 melanoma
M14 melanoma = system: M14 melanoma
CCRF-CEM leukemia = system: CCRF-CEM leukemia
HCC-2998 colon = system: HCC-2998 colon
A549 NSCLC = system: A549 NSCLC
HL-60(TB) leukemia = system: HL-60(TB) leukemia
HOP-62 NSCLC = system: HOP-62 NSCLC
K-562 leukemia = system: K-562 leukemia
SN12C renal = system: SN12C renal
OVCAR-4 ovarian = system: OVCAR-4 ovarian
OVCAR-3 ovarian = system: OVCAR-3 ovarian
BT-549 breast = system: BT-549 breast
MOLT-4 leukemia = system: MOLT-4 leukemia
UACC-62 melanoma = system: UACC-62 melanoma
IGROV1 ovarian = system: IGROV1 ovarian
ACHN renal = system: ACHN renal
DU-145 prostate = system: DU-145 prostate
UO-31 renal = system: UO-31 renal
NCI-H522 lung = system: NCI-H522 lung
NCI-H23 lung = system: NCI-H23 lung
HS 578T breast = system: HS 578T breast
HCT-15 colon = system: HCT-15 colon
MDA-MB-231 breast = system: MDA-MB-231 breast
NCI/ADR-RES ovarian = system: NCI/ADR-RES ovarian
OVCAR-8 ovarian = system: OVCAR-8 ovarian
HT29 colon = system: HT29 colon
SF-295 CNS = system: SF-295 CNS
TK-10 renal = system: TK-10 renal
MCF7 breast = system: MCF7 breast
KM12 colon = system: KM12 colon
RXF 393 renal = system: RXF 393 renal
EKVX NSCLC = system: EKVX NSCLC
LOX IMVI melanoma = system: LOX IMVI melanoma
CAKI-1 renal = system: CAKI-1 renal
SK-OV-3 ovarian = system: SK-OV-3 ovarian
MDA-MB-435 melanoma = system: MDA-MB-435 melanoma
NCI-H322M lung = system: NCI-H322M lung
A498 renal = system: A498 renal
NCI-H226 lung = system: NCI-H226 lung
PC-3 prostate = system: PC-3 prostate
OVCAR-5 ovarian = system: OVCAR-5 ovarian
SNB-75 CNS = system: SNB-75 CNS
HOP-92 NSCLC = system: HOP-92 NSCLC
MALME-3M melanoma = system: MALME-3M melanoma
RPMI-8226 leukemia = system: RPMI-8226 leukemia
HCT-116 colon = system: HCT-116 colon
786-0 renal = system: 786-0 renal
SK-MEL-28 melanoma = system: SK-MEL-28 melanoma
SNB-19 CNS = system: SNB-19 CNS
NCI-H460 NSCLC = system: NCI-H460 NSCLC
UACC-257 melanoma = system: UACC-257 melanoma

`COc1cc(S(C)(=O)=O)ccc1Nc1nc2ccc(-c3ccc(NC(=O)[C@H](C)c4ccc(F)cc4)cc3)cn2n1` showed a GI50 (COLO 205 colon) of 0.0428 µM, a TGI (COLO 205 colon) greater than 100 µM and a GI50 (T-47D breast) of 4.78 µM. For the same compound, the TGI (T-47D breast) was greater than 100 µM, the GI50 (SK-MEL-5 melanoma) was 1.54 µM and the TGI (SK-MEL-5 melanoma) was greater than 100 µM. For the same compound, the GI50 (M14 melanoma) was greater than 100 µM, the TGI (M14 melanoma) was greater than 100 µM and the GI50 (CCRF-CEM leukemia) was 0.0293 µM. It also gave a TGI (CCRF-CEM leukemia) of 0.0694 µM, a GI50 (HCC-2998 colon) greater than 100 µM and a TGI (HCC-2998 colon) greater than 100 µM. The GI50 (A549 NSCLC) was 0.0517 µM, the TGI (A549 NSCLC) was greater than 100 µM and the GI50 (HL-60(TB) leukemia) was 0.0454 µM. The TGI (HL-60(TB) leukemia) was greater than 100 µM, the GI50 (HOP-62 NSCLC) was 0.0771 µM and the TGI (HOP-62 NSCLC) was greater than 100 µM. For the same compound, the GI50 (K-562 leukemia) was 0.777 µM, the TGI (K-562 leukemia) was greater than 100 µM and the GI50 (SN12C renal) was greater than 100 µM. The TGI (SN12C renal) was greater than 100 µM, the GI50 (OVCAR-4 ovarian) was greater than 100 µM and the TGI (OVCAR-4 ovarian) was greater than 100 µM. The GI50 (OVCAR-3 ovarian) was greater than 100 µM, the TGI (OVCAR-3 ovarian) was greater than 100 µM and the GI50 (BT-549 breast) was 32.5 µM. It also gave a TGI (BT-549 breast) greater than 100 µM, a GI50 (MOLT-4 leukemia) of 0.0201 µM and a TGI (MOLT-4 leukemia) of 0.0417 µM. It also gave a GI50 (UACC-62 melanoma) greater than 100 µM, a TGI (UACC-62 melanoma) greater than 100 µM and a GI50 (IGROV1 ovarian) greater than 100 µM. It also gave a TGI (IGROV1 ovarian) greater than 100 µM, a GI50 (ACHN renal) greater than 100 µM and a TGI (ACHN renal) greater than 100 µM. For the same compound, the GI50 (DU-145 prostate) was 5.41 µM, the TGI (DU-145 prostate) was greater than 100 µM and the GI50 (UO-31 renal) was 22.4 µM. The TGI (UO-31 renal) was greater than 100 µM, the GI50 (NCI-H522 lung) was greater than 100 µM and the TGI (NCI-H522 lung) was greater than 100 µM. It also gave a GI50 (NCI-H23 lung) greater than 100 µM, a TGI (NCI-H23 lung) greater than 100 µM and a GI50 (HS 578T breast) of 17.4 µM. For the same compound, the TGI (HS 578T breast) was greater than 100 µM, the GI50 (HCT-15 colon) was 0.0587 µM and the TGI (HCT-15 colon) was greater than 100 µM. It also gave a GI50 (MDA-MB-231 breast) greater than 100 µM, a TGI (MDA-MB-231 breast) greater than 100 µM and a GI50 (NCI/ADR-RES ovarian) of 1.4 µM. It also gave a TGI (NCI/ADR-RES ovarian) greater than 100 µM, a GI50 (OVCAR-8 ovarian) of 1.19 µM and a TGI (OVCAR-8 ovarian) greater than 100 µM. The GI50 (HT29 colon) was 0.602 µM, the TGI (HT29 colon) was greater than 100 µM and the GI50 (SF-295 CNS) was greater than 100 µM. It also gave a TGI (SF-295 CNS) greater than 100 µM, a GI50 (TK-10 renal) greater than 100 µM and a TGI (TK-10 renal) greater than 100 µM. The GI50 (MCF7 breast) was 4.61 µM, the TGI (MCF7 breast) was greater than 100 µM and the GI50 (KM12 colon) was 61.7 µM. It also gave a TGI (KM12 colon) greater than 100 µM, a GI50 (RXF 393 renal) of 0.0742 µM and a TGI (RXF 393 renal) of 6.48 µM. The GI50 (EKVX NSCLC) was greater than 100 µM, the TGI (EKVX NSCLC) was greater than 100 µM and the GI50 (LOX IMVI melanoma) was 0.053 µM. For the same compound, the TGI (LOX IMVI melanoma) was greater than 100 µM, the GI50 (CAKI-1 renal) was greater than 100 µM and the TGI (CAKI-1 renal) was greater than 100 µM. The GI50 (SK-OV-3 ovarian) was greater than 100 µM, the TGI (SK-OV-3 ovarian) was greater than 100 µM and the GI50 (MDA-MB-435 melanoma) was greater than 100 µM. It also gave a TGI (MDA-MB-435 melanoma) greater than 100 µM, a GI50 (NCI-H322M lung) greater than 100 µM and a TGI (NCI-H322M lung) greater than 100 µM. The GI50 (A498 renal) was greater than 100 µM, the TGI (A498 renal) was greater than 100 µM and the GI50 (NCI-H226 lung) was greater than 100 µM. The TGI (NCI-H226 lung) was greater than 100 µM, the GI50 (PC-3 prostate) was 69 µM and the TGI (PC-3 prostate) was greater than 100 µM. It also gave a GI50 (OVCAR-5 ovarian) greater than 100 µM, a TGI (OVCAR-5 ovarian) greater than 100 µM and a GI50 (SNB-75 CNS) of 75.9 µM. For the same compound, the TGI (SNB-75 CNS) was greater than 100 µM, the GI50 (HOP-92 NSCLC) was 42.1 µM and the TGI (HOP-92 NSCLC) was greater than 100 µM. It also gave a GI50 (MALME-3M melanoma) of 58.2 µM, a TGI (MALME-3M melanoma) greater than 100 µM and a GI50 (RPMI-8226 leukemia) of 0.137 µM. It also gave a TGI (RPMI-8226 leukemia) greater than 100 µM, a GI50 (HCT-116 colon) of 0.0642 µM and a TGI (HCT-116 colon) greater than 100 µM. The GI50 ([…]-0 renal) was 1.73 µM, the TGI (786-0 renal) was greater than 100 µM and the GI50 (SK-MEL-28 melanoma) was greater than 100 µM. The TGI (SK-MEL-28 melanoma) was greater than 100 µM, the GI50 (SNB-19 CNS) was greater than 100 µM and the TGI (SNB-19 CNS) was greater than 100 µM. For the same compound, the GI50 (NCI-H460 NSCLC) was 0.0406 µM, the TGI (NCI-H460 NSCLC) was greater than 100 µM and the GI50 (UACC-257 melanoma) was greater than 100 µM. For the same compound, the TGI (UACC-257 melanoma) was greater than 100 µM.
